Results: patent US6846953B1, “Aromatic amides” (Warner Lambert Company, priority 1999, dated 2005)

Assays:
[1] = tested on: Carrageenin induced hyperalgesia in the rat; experiment: Carrageenin induced hyperalgesia, rat paw pressure test; assay type: in vivo; details: po, 30 mg/kg p.o., 1 h post dose, MPE = maximum possible effect, baseline value prior to carrageenin
Description: (§1) In another test, compounds were evaluated for their ability to reduce the hyperalgesia effects of carrageenin in the following assay: nociceptive pressure thresholds were measured in the rat paw pressure test using an analgesimeter (Randall L. O. and Selitto J. J., A method for measurement of analgesic activity on inflamed tissue. Arch. Int. Pharmacodyn 4: 409-419, 1957). Male Sprague-Dawley rats (70-90 g) were trained on this apparatus before the test day. Pressure was gradually applied to the hind paw of each rat Nociceptive thresholds were determined as the pressure (g) required to elicit paw withdrawal. A cutoff point of 250 g was used to prevent any tissue damage to the paw. On the test day, 2 to 3 baseline measurements were taken before animals were administered 100 μl of 2% aqueous carrageenin by intraplantar injection into the right hind paw. […]

[2] = tested on: Carrageenin induced thermal hyperalgesia in the rat; experiment: as above; assay type: in vivo; details: po, 30 mg/kg p.o., 2 h post dose, MPE = maximum possible effect, baseline value prior to carrageenin
Description: as §1

| SMILES | inhibition in vivo at 30 mg/kg [1] [%] | inhibition in vivo at 30 mg/kg [2] [%] |
| --- | --- | --- |
| CCC(=O)N(CCN(CC)CC)c1cccc2c1-c1ccccc1C2=O [Example 2, N-Propionyl, N-(2-Diethylaminoethyl)-4-amino-9-fluorenone] | 1.1 | 6.4 |
| CCC(=O)N(CCN(CC)CC)c1ccc(Br)c2ccccc12 [Example 3, N-Propionyl, N-(2-Diethylaminoethyl)-1-amino-4-bromonaphthalene] | -2.6 | 7.7 |
| C=CC(=O)N(CCN(CC)CC)c1ccc(Cl)c2ccccc12 [Example 14, N-Acryloyl, N-(2-Diethylaminoethyl)-1-amino-4-chloronaphthalene] | 15.1 | 0.9 |
| CCC(=O)N(c1ccc(Cl)c2ccccc12)C(C)CN(CC)CC (centres unmarked) [Example 5, N-Propionyl, N-(2-(3-diethylamino-propyl))-1-amino-4-chloronaphthalene] | 23.3 | 27.5 |
| CCC(=O)N(CCN1CCOCC1)c1ccc(Cl)c2ccccc12 [Example 4] | 44.8 | 30.7 |
| CCC(=O)N(CCNCc1ccccc1)c1cccc2ccccc12 [Example 12, N-Propionyl, N-(2-(N-benzyl)-aminoethyl)-1-aminonaphthalene] | 29.7 | 3.13 |
| CCC(=O)N(CCN(CC)CC)c1ccc(Cl)c2ccccc12 [Example 1, N-Propionyl, N-(2-Diethylaminoethyl)-1-amino-4-chloronaphthalene] | 51.5 | 22.2 |
